Results reported in patent US9663508B2, “Biaryl acyl-sulfonamide compounds as sodium channel inhibitors” (AMGEN INC., priority 2013, dated 2017).
Like-named read-outs stand apart in the source and are kept apart here.

Experiments:
human Nav1.7 = human Nav1.7 (Homo sapiens (Human), UniProt Q15858); assay: Nav 1.7 in vitro PatchXpress (PX) assay; assay type: cell-based
human Nav 1.5 = human Nav 1.5 (Homo sapiens (Human), UniProt Q14524); assay: Nav 1.5 IonWorks Quattro (IWQ) in vitro assay; assay type: cell-based
human Nav 1.5, sequence (Q14524 whole entry): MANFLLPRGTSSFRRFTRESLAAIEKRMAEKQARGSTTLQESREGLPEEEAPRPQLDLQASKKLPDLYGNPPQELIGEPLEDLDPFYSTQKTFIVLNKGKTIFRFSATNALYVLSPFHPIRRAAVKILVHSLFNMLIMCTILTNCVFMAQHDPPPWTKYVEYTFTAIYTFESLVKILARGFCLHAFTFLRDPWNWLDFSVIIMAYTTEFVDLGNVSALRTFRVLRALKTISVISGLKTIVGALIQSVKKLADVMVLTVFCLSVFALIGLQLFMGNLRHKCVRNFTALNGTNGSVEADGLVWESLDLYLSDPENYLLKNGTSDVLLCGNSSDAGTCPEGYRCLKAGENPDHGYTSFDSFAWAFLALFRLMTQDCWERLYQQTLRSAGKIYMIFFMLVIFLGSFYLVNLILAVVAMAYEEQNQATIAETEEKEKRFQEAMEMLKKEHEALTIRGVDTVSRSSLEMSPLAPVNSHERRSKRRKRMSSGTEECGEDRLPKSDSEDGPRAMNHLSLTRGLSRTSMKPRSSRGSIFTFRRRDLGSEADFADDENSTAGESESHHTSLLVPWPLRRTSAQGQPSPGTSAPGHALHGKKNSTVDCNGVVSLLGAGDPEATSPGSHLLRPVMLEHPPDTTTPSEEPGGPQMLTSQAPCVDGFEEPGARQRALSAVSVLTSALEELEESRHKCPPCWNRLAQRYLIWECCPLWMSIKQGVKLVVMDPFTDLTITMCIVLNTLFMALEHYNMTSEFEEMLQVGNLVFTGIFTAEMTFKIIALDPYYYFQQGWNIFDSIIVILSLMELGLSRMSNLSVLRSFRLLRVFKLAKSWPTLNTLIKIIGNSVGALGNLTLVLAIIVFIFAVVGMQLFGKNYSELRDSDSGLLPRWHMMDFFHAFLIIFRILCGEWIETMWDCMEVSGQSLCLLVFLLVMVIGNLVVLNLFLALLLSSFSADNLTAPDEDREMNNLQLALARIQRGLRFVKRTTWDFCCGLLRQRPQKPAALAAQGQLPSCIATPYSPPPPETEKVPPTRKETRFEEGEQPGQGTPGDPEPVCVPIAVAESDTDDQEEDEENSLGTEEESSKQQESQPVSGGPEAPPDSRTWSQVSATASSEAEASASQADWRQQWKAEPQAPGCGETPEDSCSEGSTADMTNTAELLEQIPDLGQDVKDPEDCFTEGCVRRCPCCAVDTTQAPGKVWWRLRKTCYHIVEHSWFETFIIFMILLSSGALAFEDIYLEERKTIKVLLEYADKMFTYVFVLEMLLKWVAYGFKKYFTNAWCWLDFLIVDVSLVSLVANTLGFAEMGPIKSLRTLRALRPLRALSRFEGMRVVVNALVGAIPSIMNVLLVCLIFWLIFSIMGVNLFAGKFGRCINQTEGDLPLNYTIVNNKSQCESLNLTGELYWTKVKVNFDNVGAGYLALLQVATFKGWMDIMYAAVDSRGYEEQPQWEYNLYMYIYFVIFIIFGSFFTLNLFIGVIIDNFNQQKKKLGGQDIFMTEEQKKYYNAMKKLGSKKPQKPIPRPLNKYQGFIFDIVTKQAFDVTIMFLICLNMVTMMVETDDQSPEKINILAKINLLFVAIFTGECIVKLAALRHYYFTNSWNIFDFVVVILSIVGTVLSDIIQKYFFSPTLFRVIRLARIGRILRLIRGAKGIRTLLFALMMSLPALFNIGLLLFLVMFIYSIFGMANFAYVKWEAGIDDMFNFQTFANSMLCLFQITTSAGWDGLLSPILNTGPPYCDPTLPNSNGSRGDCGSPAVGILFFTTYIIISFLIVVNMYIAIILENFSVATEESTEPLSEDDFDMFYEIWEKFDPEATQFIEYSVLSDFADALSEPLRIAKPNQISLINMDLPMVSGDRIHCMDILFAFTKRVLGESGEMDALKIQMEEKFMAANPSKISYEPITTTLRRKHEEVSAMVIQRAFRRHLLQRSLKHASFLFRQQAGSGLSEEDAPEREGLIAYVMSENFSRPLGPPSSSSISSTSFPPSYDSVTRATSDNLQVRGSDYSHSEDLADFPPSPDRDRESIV
Protocol: Nav 1.7 or Nav 1.5 Ion Works Quattro (IWQ) In Vitro Assay
HEK 293 Cells stably transfected with either human Nay 1.7 or human Nay 1.5 were recorded in population patch-clamp mode with the IonWorks® Quattro automated electrophysiology system in accordance with the manufacturer's specifications (Molecular Devices, LLC, Sunnyvale, Calif.). Sodium channel currents were measured in response to a train of depolarizations that induced successively greater inactivation.
Cells were held at −110 mV for three seconds (Nav 1.7) or half a second (Nav 1.5) from a holding voltage of −15 mV, then put through a series of 26 pulses of 150 msec duration to −20 mV at a frequency of 5 Hz. Cells were then left unclamped for a period of 3 to 8 minutes while a single concentration of test compound was added. Cells were then reclamped and put through the same voltage protocol. Current at the end of the 26th pulse to −20 mV was subtracted from the peak current evoked by the 26th pulse to −20 mV to correct for leak current. Percent block was calculated for each concentration in duplicate, and IC50 curves were fitted to percent block as a function of concentration.

human Nav1.7, sequence (Q15858 whole entry): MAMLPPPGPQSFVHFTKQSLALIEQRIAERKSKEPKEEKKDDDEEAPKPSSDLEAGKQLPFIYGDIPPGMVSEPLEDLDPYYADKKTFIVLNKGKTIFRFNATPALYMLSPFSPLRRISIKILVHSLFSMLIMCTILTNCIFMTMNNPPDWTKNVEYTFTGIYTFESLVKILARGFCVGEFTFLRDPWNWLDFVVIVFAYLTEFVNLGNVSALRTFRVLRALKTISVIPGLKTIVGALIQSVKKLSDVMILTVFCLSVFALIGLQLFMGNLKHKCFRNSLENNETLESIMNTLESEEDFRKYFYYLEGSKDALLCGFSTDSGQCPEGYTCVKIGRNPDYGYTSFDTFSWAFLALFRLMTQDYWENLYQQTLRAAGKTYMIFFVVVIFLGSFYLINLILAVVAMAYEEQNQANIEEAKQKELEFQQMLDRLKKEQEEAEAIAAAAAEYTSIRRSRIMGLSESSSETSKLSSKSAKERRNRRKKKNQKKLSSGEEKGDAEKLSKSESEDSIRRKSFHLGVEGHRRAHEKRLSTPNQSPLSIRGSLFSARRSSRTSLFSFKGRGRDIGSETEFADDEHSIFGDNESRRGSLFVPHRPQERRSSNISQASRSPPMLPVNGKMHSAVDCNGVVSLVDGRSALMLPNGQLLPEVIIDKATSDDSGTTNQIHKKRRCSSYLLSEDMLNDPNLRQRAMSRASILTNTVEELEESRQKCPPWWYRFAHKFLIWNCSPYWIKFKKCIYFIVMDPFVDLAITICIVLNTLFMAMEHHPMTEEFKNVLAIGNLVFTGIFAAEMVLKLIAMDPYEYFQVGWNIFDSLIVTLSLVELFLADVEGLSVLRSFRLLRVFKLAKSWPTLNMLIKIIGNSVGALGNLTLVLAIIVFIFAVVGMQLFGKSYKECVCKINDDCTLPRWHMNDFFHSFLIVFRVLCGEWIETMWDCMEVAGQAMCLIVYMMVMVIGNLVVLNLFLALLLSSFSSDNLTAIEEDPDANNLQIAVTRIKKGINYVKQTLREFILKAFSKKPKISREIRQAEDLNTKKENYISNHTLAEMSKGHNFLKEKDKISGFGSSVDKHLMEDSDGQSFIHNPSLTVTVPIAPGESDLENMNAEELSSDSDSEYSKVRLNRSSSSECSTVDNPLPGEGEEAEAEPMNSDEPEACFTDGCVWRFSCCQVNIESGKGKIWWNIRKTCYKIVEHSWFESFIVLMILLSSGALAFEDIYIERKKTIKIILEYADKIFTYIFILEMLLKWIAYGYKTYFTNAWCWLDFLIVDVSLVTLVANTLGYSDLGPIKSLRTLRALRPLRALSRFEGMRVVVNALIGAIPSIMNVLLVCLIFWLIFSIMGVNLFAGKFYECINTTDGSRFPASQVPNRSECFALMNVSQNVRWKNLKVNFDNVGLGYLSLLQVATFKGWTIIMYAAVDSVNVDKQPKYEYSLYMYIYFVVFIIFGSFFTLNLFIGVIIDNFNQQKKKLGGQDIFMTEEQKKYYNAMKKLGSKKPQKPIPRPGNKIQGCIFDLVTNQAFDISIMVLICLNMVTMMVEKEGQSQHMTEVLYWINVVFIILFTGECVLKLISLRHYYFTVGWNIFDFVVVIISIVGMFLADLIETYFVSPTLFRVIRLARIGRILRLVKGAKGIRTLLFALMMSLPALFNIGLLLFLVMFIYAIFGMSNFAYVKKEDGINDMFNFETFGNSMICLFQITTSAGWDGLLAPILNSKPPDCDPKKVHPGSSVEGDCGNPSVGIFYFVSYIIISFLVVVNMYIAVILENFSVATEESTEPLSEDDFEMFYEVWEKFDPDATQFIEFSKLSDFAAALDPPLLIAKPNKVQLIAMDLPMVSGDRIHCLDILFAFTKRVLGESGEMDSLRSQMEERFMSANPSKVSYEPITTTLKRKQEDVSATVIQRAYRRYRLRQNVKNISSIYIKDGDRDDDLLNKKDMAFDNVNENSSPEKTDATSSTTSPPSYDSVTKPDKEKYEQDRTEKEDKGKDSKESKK

Row | IC50 (human Nav1.7) | Structure (SMILES) | IC50 (human Nav 1.5; read-out: NAV 1.5 IWQ IC50) | IC50 (human Nav 1.5)
1 | 0.0481 µM | Cc1cc(C(=O)NS(C)(=O)=O)c(F)cc1-c1cnc(Oc2c(C)ccc3ccccc23)c(Cl)c1 [Example 608, 4-(5-chloro-6-((2-methyl-1-naphthalenyl)oxy)-3-pyridinyl)-2-fluoro-5-methyl-N-(methylsulfonyl)benzamide] | > 3 µM | 
2 | 0.0761 µM | Cc1cc(C(=O)NS(C)(=O)=O)c(F)cc1-c1cnc(Oc2ccc(C(C)(C)C)cc2Cl)c(Cl)c1 [Example 611, 4-(6-(4-tert-butyl-2-chlorophenoxy)-5-chloro-3-pyridinyl)-2-fluoro-5-methyl-N-(methylsulfonyl)benzamide] | > 3 µM | 
3 | 0.0883 µM | Cc1cc(C(=O)NS(C)(=O)=O)c(F)cc1-c1cnc(Oc2ccccc2-c2ccccc2)c(Cl)c1 [Example 612, 4-(6-(2-biphenylyloxy)-5-chloro-3-pyridinyl)-2-fluoro-5-methyl-N-(methylsulfonyl)benzamide] | > 3 µM | 
4 | 0.0927 µM | Cc1cc(C(=O)NS(C)(=O)=O)c(F)cc1-c1cnc(Oc2ccc(Cl)c3ccccc23)c(Cl)c1 [Example 613, 4-(5-chloro-6-((4-chloro-1-naphthalenyl)oxy)-3-pyridinyl)-2-fluoro-5-methyl-N-(methylsulfonyl)benzamide] | > 3 µM | 
5 | 0.0708 µM | Cc1ccc(Cl)cc1Oc1ncc(-c2cc(F)c(C(=O)NS(C)(=O)=O)cc2C)cc1Cl [Example 616, 4-(5-chloro-6-(5-chloro-2-methylphenoxy)-3-pyridinyl)-2-fluoro-5-methyl-N-(methylsulfonyl)benzamide] | > 3 µM | 
6 | 0.0933 µM | Cc1cc(C(=O)NS(C)(=O)=O)c(F)cc1-c1cnc(Oc2cc(Cl)ccc2F)c(Cl)c1 [Example 617, 4-(5-chloro-6-(5-chloro-2-fluorophenoxy)-3-pyridinyl)-2-fluoro-5-methyl-N-(methylsulfonyl)benzamide] | > 3 µM | 
7 | 0.095 µM | Cc1cc(C(=O)NS(C)(=O)=O)c(F)cc1-c1cnc(Oc2cccc(C)c2F)c(Cl)c1 [Example 618, 4-(5-chloro-6-(2-fluoro-3-methylphenoxy)-3-pyridinyl)-2-fluoro-5-methyl-N-(methylsulfonyl)benzamide] | > 3 µM | 
8 | 0.0937 µM | Cc1cc(C(=O)NS(C)(=O)=O)c(F)cc1-c1cnc(Oc2cccc(Cl)c2F)c(Cl)c1 [Example 619, 4-(5-chloro-6-(3-chloro-2-fluorophenoxy)-3-pyridinyl)-2-fluoro-5-methyl-N-(methylsulfonyl)benzamide] | > 3 µM | 
9 | 0.0761 µM | Cc1cc(Cl)ccc1Oc1ncc(-c2cc(F)c(C(=O)NS(C)(=O)=O)cc2C)cc1Cl [Example 620, 4-(5-chloro-6-(4-chloro-2-methylphenoxy)-3-pyridinyl)-2-fluoro-5-methyl-N-(methylsulfonyl)benzamide] | > 3 µM | 
10 | 0.0691 µM | Cc1cc(C(=O)NS(C)(=O)=O)c(F)cc1-c1cnc(Oc2c(Cl)cccc2Cl)c(Cl)c1 [Example 627, 4-(5-chloro-6-(2,6-dichlorophenoxy)-3-pyridinyl)-2-fluoro-5-methyl-N-(methylsulfonyl)benzamide] | > 3 µM | 

The remaining lines, values behind:

Row | Structure (SMILES) | IC50 (human Nav1.7) | IC50 (human Nav 1.5; read-out: NAV 1.5 IWQ IC50) | IC50 (human Nav 1.5)
11 | CC(C)[C@@H](Oc1ncc(-c2cc(F)c(C(=O)NS(C)(=O)=O)cc2Cl)cc1Cl)c1ccccc1 [Example 594, 5-chloro-4-(5-chloro-6-(((1R)-2-methyl-1-phenylpropyl)oxy)-3-pyridinyl)-2-fluoro-N-(methylsulfonyl)benzamide, 5-chloro-4-(5-chloro-6-(((1S)-2-methyl-1-phenylpropyl)oxy)-3-pyridinyl)-2-fluoro-N-(methylsulfonyl)benzamide] | 0.0488 µM | > 3 µM | 
12 | CS(=O)(=O)NC(=O)c1cc(Cl)c(-c2cnc(Oc3cc(F)ccc3Cl)c(Cl)c2)cc1F [Example 595, 5-chloro-4-(5-chloro-6-(2-chloro-5-fluorophenoxy)-3-pyridinyl)-2-fluoro-N-(methylsulfonyl)benzamide] | 0.0814 µM | > 3 µM | 
13 | CC[C@@H](Oc1ncc(-c2cc(F)c(C(=O)NS(C)(=O)=O)cc2Cl)cc1Cl)c1ccc(F)cc1 [Example 596, 5-chloro-4-(5-chloro-6-(((1R)-1-(4-fluorophenyl)propyl)oxy)-3-pyridinyl)-2-fluoro-N-(methylsulfonyl)benzamide, 5-chloro-4-(5-chloro-6-(((1S)-1-(4-fluorophenyl)propyl)oxy)-3-pyridinyl)-2-fluoro-N-(methylsulfonyl)benzamide] | 0.0879 µM | > 3 µM | 
14 | CS(=O)(=O)NC(=O)c1cc(Cl)c(-c2cnc(Oc3cc(F)ccc3F)c(Cl)c2)cc1F [Example 597, 5-chloro-4-(5-chloro-6-(2,5-difluorophenoxy)-3-pyridinyl)-2-fluoro-N-(methylsulfonyl)benzamide] | 0.0698 µM | 5.39 µM | 
15 | CS(=O)(=O)NC(=O)c1cc(Cl)c(-c2cnc(Oc3cc(F)cc(F)c3Cl)c(Cl)c2)cc1F [Example 599, 5-chloro-4-(5-chloro-6-(2-chloro-3,5-difluorophenoxy)-3-pyridinyl)-2-fluoro-N-(methylsulfonyl)benzamide] | 0.0627 µM | > 3 µM | 
16 | Cc1cc(C(=O)NS(C)(=O)=O)c(F)cc1-c1cnc(Oc2cc(F)ccc2F)c(Cl)c1 [Example 605, 4-(5-chloro-6-(2,5-difluorophenoxy)-3-pyridinyl)-2-fluoro-5-methyl-N-(methylsulfonyl)benzamide] | 0.0455 µM | > 3 µM | 
17 | Cc1cc(C(=O)NS(C)(=O)=O)c(F)cc1-c1cnc(Oc2cc(F)c(Br)cc2Cl)c(Cl)c1 [Example 606, 4-(6-(4-bromo-2-chloro-5-fluorophenoxy)-5-chloro-3-pyridinyl)-2-fluoro-5-methyl-N-(methylsulfonyl)benzamide] | 0.0717 µM | > 3 µM | 
18 | Cc1cc(C(=O)NS(C)(=O)=O)c(F)cc1-c1cnc(Oc2cccc(Br)c2)c(Cl)c1 [Example 607, 4-(6-(3-bromophenoxy)-5-chloro-3-pyridinyl)-2-fluoro-5-methyl-N-(methylsulfonyl)benzamide] | 0.0683 µM | > 3 µM | 
19 | Cc1cc(C(=O)NS(C)(=O)=O)c(F)cc1-c1cnc(Oc2ccc(Br)cc2)c(Cl)c1 [Example 609, 4-(6-(4-bromophenoxy)-5-chloro-3-pyridinyl)-2-fluoro-5-methyl-N-(methylsulfonyl)benzamide] | 0.0774 µM | > 3 µM | 
20 | Cc1cc(Br)ccc1Oc1ncc(-c2cc(F)c(C(=O)NS(C)(=O)=O)cc2C)cc1Cl [Example 614, 4-(6-(4-bromo-2-methylphenoxy)-5-chloro-3-pyridinyl)-2-fluoro-5-methyl-N-(methylsulfonyl)benzamide] | 0.068 µM | > 3 µM | 
21 | Cc1cc(C(=O)NS(C)(=O)=O)c(F)cc1-c1cnc(Oc2ccc(F)c(F)c2F)c(Cl)c1 [Example 615, 4-(5-chloro-6-(2,3,4-trifluorophenoxy)-3-pyridinyl)-2-fluoro-5-methyl-N-(methylsulfonyl)benzamide] | 0.0752 µM | > 3 µM | 
22 | Cc1cc(C(=O)NS(C)(=O)=O)c(F)cc1-c1cnc(Oc2c(F)cc(F)cc2F)c(Cl)c1 [Example 622, 4-(5-chloro-6-(2,4,6-trifluorophenoxy)-3-pyridinyl)-2-fluoro-5-methyl-N-(methylsulfonyl)benzamide] | 0.0873 µM | > 3 µM | 
23 | Cc1ccc(Oc2ncc(-c3cc(F)c(C(=O)NS(C)(=O)=O)cc3C)cc2Cl)cc1F [Example 623, 4-(5-chloro-6-(3-fluoro-4-methylphenoxy)-3-pyridinyl)-2-fluoro-5-methyl-N-(methylsulfonyl)benzamide] | 0.0485 µM |  | 4.84 µM
24 | Cc1ccc(C(C)(C)C)c(Oc2ncc(-c3cc(F)c(C(=O)NS(C)(=O)=O)cc3C)cc2Cl)c1 [Example 624, 4-(6-(2-tert-butyl-5-methylphenoxy)-5-chloro-3-pyridinyl)-2-fluoro-5-methyl-N-(methylsulfonyl)benzamide] | 0.0827 µM | > 3 µM | 
25 | Cc1cc(C(=O)NS(C)(=O)=O)c(F)cc1-c1cnc(Oc2c(C)cc(Cl)cc2Cl)c(Cl)c1 [Example 628, 4-(5-chloro-6-(2,4-dichloro-6-methylphenoxy)-3-pyridinyl)-2-fluoro-5-methyl-N-(methylsulfonyl)benzamide] | 0.056 µM | 2.19 µM | 
26 | Cc1cc(C(=O)NS(C)(=O)=O)c(F)cc1-c1cnc(Oc2cc(F)cc(F)c2F)c(Cl)c1 [Example 629, 4-(5-chloro-6-(2,3,5-trifluorophenoxy)-3-pyridinyl)-2-fluoro-5-methyl-N-(methylsulfonyl)benzamide] | 0.0578 µM | > 3 µM | 
27 | Cc1cc(C(=O)NS(C)(=O)=O)c(F)cc1-c1cnc(Oc2cc(F)cc(F)c2)c(Cl)c1 [Example 630, 4-(5-chloro-6-(3,5-difluorophenoxy)-3-pyridinyl)-2-fluoro-5-methyl-N-(methylsulfonyl)benzamide] | 0.0778 µM | > 3 µM | 
28 | Cc1cc(C(=O)NS(C)(=O)=O)c(F)cc1-c1cnc(Oc2cc(F)cc(F)c2Cl)c(Cl)c1 [Example 631, 4-(5-chloro-6-(2-chloro-3,5-difluorophenoxy)-3-pyridinyl)-2-fluoro-5-methyl-N-(methylsulfonyl)benzamide] | 0.0628 µM | > 3 µM | 
29 | Cc1cc(Cl)c(Oc2ncc(-c3cc(F)c(C(=O)NS(C)(=O)=O)cc3C)cc2Cl)cc1C [Example 632, 4-(5-chloro-6-(2-chloro-4,5-dimethylphenoxy)-3-pyridinyl)-2-fluoro-5-methyl-N-(methylsulfonyl)benzamide] | 0.0815 µM | > 3 µM | 
30 | Cc1cc(C(=O)NS(C)(=O)=O)c(F)cc1-c1cnc(Oc2c(C)cccc2C(C)(C)C)c(Cl)c1 [Example 633, 4-(6-(2-tert-butyl-6-methylphenoxy)-5-chloro-3-pyridinyl)-2-fluoro-5-methyl-N-(methylsulfonyl)benzamide] | 0.0833 µM | > 3 µM | 
31 | Cc1ccc(Oc2ncc(-c3cc(F)c(C(=O)NS(C)(=O)=O)cc3C)cc2Cl)c(C(C)(C)C)c1 [Example 634, 4-(6-(2-tert-butyl-4-methylphenoxy)-5-chloro-3-pyridinyl)-2-fluoro-5-methyl-N-(methylsulfonyl)benzamide] | 0.0948 µM | > 3 µM | 
